Measured values published in ChEMBL document CHEMBL3991601, “The target landscape of clinical kinase drugs” (Science, 2017).
Activity calls are given as the source filed them.

Assays:
[1] = target: T1, Cytochrome c1, heme protein, mitochondrial (Homo sapiens, UniProt P08574)
T1 sequence (P08574 whole entry): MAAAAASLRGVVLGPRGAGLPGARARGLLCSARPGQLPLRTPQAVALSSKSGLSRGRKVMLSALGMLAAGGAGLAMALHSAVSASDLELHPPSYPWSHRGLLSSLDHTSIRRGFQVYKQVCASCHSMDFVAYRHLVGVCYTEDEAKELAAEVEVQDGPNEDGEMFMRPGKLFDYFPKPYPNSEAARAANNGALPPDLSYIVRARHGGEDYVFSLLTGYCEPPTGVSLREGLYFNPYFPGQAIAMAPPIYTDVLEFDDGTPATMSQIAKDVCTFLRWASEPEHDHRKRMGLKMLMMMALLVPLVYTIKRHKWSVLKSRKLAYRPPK

Myosin-14 = Myosin-14 (Homo sapiens, UniProt Q7Z406)
Sequence of Myosin-14 (Q7Z406 whole entry): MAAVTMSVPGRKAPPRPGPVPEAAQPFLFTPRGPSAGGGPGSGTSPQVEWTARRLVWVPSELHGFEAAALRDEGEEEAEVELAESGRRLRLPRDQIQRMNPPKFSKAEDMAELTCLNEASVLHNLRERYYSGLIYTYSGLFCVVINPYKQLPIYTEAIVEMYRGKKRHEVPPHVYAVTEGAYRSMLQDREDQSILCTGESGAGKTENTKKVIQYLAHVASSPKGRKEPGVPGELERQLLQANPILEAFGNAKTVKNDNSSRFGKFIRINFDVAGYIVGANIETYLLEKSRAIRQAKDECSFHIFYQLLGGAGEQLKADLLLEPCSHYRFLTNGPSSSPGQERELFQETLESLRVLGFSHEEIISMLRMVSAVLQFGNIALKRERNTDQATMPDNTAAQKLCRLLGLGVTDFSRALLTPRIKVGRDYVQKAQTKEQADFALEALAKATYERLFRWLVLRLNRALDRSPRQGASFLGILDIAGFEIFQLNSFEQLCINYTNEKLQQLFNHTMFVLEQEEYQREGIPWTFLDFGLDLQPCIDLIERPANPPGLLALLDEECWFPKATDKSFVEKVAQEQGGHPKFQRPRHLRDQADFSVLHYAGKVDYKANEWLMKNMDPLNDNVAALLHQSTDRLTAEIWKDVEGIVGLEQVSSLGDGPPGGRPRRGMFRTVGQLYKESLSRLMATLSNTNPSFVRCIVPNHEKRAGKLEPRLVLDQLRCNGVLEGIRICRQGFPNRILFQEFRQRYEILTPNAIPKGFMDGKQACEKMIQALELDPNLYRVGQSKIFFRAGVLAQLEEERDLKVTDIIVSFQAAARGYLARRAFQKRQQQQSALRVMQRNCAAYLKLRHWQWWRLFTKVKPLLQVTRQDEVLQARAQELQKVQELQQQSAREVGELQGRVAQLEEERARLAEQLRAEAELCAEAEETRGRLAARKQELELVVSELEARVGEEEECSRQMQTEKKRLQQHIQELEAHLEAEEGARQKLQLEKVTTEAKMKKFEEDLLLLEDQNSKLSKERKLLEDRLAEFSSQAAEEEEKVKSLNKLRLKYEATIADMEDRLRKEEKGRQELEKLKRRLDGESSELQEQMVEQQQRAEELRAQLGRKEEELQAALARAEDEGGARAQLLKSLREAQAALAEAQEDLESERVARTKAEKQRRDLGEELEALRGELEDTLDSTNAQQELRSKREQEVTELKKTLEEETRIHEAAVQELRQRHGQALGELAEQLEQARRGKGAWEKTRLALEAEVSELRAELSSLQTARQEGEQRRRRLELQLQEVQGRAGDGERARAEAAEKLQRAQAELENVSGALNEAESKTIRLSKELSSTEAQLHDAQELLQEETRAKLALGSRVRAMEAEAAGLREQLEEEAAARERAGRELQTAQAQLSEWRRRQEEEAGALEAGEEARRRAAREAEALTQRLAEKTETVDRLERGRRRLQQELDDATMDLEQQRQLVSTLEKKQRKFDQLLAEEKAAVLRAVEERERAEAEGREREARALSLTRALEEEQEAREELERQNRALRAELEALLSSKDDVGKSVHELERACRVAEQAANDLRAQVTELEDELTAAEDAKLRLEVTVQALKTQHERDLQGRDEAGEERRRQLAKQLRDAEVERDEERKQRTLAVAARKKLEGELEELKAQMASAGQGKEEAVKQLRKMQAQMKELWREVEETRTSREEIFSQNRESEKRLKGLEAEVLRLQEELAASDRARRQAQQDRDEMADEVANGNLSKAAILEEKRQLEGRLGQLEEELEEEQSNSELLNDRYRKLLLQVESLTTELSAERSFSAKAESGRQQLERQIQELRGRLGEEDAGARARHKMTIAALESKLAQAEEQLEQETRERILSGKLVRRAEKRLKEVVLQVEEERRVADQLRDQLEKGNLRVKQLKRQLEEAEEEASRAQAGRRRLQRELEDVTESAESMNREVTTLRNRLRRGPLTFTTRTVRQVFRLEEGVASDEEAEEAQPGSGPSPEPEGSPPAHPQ

[2] = target: NADH dehydrogenase [ubiquinone] 1 alpha subcomplex subunit 13 (Homo sapiens, UniProt Q9P0J0)
Sequence of NADH dehydrogenase [ubiquinone] 1 alpha subcomplex subunit 13 (Q9P0J0 whole entry, one chain of several): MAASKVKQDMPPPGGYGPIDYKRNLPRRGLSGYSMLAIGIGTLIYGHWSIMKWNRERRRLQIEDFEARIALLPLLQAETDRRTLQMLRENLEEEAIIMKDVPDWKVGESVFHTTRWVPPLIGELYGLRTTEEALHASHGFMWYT

[3] = target: Serine/threonine-protein kinase N2 (Homo sapiens, UniProt Q16513)
Sequence of Serine/threonine-protein kinase N2 (Q16513 whole entry): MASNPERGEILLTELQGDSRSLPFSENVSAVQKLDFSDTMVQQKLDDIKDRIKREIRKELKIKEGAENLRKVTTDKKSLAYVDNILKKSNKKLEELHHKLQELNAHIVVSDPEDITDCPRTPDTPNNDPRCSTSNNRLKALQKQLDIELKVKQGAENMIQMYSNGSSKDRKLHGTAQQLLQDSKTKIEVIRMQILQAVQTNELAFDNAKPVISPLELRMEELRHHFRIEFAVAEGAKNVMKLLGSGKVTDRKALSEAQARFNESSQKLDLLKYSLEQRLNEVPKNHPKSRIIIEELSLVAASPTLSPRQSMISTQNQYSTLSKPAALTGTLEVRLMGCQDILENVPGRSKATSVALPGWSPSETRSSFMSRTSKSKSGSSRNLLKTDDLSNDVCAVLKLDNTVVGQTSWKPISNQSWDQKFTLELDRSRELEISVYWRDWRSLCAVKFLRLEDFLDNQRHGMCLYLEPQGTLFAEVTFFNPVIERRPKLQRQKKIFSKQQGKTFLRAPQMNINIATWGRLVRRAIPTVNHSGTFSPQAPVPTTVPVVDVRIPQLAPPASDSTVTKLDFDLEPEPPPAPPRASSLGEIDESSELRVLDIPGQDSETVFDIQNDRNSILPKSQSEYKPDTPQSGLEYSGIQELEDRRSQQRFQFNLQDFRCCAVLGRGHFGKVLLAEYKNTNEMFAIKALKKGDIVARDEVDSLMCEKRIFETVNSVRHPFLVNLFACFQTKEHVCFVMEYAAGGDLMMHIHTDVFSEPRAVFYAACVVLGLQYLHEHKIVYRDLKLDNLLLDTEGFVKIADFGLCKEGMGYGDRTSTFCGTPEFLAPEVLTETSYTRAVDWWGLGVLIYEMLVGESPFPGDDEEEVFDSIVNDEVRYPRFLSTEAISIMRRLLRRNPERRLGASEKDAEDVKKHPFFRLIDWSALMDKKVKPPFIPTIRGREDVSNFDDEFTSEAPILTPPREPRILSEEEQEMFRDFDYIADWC

Focal adhesion kinase 1 = Focal adhesion kinase 1 (Homo sapiens, UniProt Q05397)
Sequence of Focal adhesion kinase 1 (Q05397 whole entry): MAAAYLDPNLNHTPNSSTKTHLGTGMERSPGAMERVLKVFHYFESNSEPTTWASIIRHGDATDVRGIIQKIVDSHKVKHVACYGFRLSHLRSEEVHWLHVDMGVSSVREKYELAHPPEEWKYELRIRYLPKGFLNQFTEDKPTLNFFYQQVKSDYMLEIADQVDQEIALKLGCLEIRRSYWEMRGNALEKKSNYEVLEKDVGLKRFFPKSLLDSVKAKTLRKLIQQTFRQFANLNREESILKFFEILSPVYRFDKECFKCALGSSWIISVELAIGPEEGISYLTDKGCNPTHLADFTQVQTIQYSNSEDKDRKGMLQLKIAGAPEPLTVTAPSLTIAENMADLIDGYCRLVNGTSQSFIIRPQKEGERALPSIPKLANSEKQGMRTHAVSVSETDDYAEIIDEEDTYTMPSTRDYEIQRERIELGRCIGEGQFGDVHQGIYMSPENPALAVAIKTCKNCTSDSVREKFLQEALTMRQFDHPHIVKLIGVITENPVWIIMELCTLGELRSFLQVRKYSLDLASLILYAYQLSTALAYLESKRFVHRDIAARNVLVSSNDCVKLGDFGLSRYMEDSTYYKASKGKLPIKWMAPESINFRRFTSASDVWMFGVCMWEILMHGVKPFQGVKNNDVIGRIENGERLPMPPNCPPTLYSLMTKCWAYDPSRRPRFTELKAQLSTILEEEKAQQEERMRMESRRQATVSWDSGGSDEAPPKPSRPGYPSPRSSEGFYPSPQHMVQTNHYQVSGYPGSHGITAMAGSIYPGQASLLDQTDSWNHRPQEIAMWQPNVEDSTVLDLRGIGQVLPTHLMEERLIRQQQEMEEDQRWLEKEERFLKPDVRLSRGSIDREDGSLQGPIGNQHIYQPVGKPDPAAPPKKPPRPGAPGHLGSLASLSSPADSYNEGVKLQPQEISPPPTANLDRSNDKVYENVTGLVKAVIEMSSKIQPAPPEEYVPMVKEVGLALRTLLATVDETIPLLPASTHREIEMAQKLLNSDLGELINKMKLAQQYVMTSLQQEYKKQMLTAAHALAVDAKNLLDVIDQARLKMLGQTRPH

[4] = target: T2, Serine/threonine-protein kinase TAO3 (Homo sapiens, UniProt Q9H2K8)
T2 sequence (Q9H2K8 whole entry): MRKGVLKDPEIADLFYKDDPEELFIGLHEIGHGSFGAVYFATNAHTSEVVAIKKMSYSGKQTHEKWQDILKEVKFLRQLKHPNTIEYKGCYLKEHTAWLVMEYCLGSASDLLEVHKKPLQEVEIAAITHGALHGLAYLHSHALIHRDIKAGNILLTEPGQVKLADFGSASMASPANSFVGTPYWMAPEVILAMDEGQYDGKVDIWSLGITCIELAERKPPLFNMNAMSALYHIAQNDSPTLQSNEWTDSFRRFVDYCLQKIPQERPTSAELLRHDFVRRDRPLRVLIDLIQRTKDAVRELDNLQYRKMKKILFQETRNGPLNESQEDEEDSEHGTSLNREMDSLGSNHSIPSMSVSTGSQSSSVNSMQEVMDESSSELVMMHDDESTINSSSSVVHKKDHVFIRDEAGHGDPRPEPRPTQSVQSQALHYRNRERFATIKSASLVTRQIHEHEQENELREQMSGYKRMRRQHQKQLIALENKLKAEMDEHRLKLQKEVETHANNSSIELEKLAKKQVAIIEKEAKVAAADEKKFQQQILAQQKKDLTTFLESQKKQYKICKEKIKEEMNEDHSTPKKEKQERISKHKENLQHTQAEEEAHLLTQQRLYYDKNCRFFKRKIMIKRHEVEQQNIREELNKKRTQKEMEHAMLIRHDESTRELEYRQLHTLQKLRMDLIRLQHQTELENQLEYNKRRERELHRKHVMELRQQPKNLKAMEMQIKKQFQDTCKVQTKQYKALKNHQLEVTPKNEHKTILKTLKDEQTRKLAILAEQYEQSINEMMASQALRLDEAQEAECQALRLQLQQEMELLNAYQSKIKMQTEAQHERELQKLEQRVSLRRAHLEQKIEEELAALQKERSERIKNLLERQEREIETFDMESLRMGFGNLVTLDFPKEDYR

[5] = target: T3, Tyrosine-protein kinase Tec (Homo sapiens, UniProt P42680)
T3 sequence (P42680 whole entry): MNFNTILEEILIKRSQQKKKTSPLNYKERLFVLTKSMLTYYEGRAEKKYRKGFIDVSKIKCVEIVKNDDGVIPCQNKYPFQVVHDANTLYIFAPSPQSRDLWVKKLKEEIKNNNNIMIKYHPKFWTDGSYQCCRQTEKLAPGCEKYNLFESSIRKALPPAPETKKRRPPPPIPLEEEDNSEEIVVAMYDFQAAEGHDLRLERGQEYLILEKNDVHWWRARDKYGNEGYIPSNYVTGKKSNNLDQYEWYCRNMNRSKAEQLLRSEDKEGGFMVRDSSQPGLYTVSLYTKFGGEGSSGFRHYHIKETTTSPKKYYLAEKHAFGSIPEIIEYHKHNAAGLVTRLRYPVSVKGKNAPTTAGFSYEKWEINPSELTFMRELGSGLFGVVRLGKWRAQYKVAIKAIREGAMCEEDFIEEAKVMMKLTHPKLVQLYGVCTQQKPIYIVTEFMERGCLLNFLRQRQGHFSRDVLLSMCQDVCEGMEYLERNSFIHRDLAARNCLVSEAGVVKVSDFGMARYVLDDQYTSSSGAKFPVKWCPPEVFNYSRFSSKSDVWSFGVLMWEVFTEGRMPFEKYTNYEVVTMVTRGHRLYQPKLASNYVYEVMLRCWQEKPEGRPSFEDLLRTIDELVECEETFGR

[6] = target: Elongation factor Tu, mitochondrial (Homo sapiens, UniProt P49411)

Measured: Kd
Also: in the data inactive means no Kd found up to 30 µM.

COc1c(OCCCN2CCOCC2)ccc2c1N=C(NC(=O)c1cnc(N)nc1)N1CCN=C21 [COPANLISIB]
inactive: [1] > 30 µM | Myosin-14 > 30 µM | [2] > 30 µM | [3] > 30 µM | Focal adhesion kinase 1 > 30 µM | [4] > 30 µM | [5] > 30 µM | [6] > 30 µM

COCC(=O)NC/C=C/c1ccc2ncnc(Nc3ccc(Oc4ccc(C)nc4)c(C)c3)c2c1 [CP-724714]
inactive: [1] > 30 µM | Myosin-14 > 30 µM | [2] > 30 µM | [3] > 30 µM | Focal adhesion kinase 1 > 30 µM | [4] > 30 µM | [5] > 30 µM | [6] > 30 µM

C#Cc1cccc(Nc2ncnc3cc(OC)c(OCCCCCCC(=O)NO)cc23)c1 [CUDC-101]
inactive: [1] > 30 µM | Myosin-14 > 30 µM | [2] > 30 µM | [3] > 30 µM | Focal adhesion kinase 1 > 30 µM | [4] > 30 µM | [5] > 30 µM | [6] > 30 µM

CC(C)(C)c1nc(-c2cccc(NS(=O)(=O)c3c(F)cccc3F)c2F)c(-c2ccnc(N)n2)s1 [DABRAFENIB]
inactive: [1] > 30 µM | Myosin-14 > 30 µM | [2] > 30 µM | [3] > 30 µM | Focal adhesion kinase 1 > 30 µM | [4] > 30 µM | [5] > 30 µM | [6] > 30 µM

O=C(Nc1nc2cccc(-c3ccc(CN4CCS(=O)(=O)CC4)cc3)n2n1)C1CC1 [FILGOTINIB]
inactive: [1] > 30 µM | Myosin-14 > 30 µM | [2] > 30 µM | [3] > 30 µM | Focal adhesion kinase 1 > 30 µM | [4] > 30 µM | [5] > 30 µM | [6] > 30 µM

Cc1cccc(-c2nn3c(c2-c2ccnc4ccc(C(N)=O)cc24)CCC3)n1 [GALUNISERTIB]
inactive: [1] > 30 µM | Myosin-14 > 30 µM | [2] > 30 µM | [3] > 30 µM | Focal adhesion kinase 1 > 30 µM | [4] > 30 µM | [5] > 30 µM | [6] > 30 µM

CCn1cc(-c2ccnc3[nH]c(-c4cccc(CN(C)C)c4)cc23)c(-c2ccc(NC(=O)N(C)C)cc2)n1 [GSK-1070916]
inactive: [1] > 30 µM | Myosin-14 > 30 µM | [2] > 30 µM | [3] > 30 µM | Focal adhesion kinase 1 > 30 µM | [4] > 30 µM | [5] > 30 µM | [6] > 30 µM

O=C(Nc1cc(C(F)(F)F)cc(C(F)(F)F)c1)c1cc(Cl)ccc1O [IMD-0354]
inactive: [1] > 30 µM | Myosin-14 > 30 µM | [2] > 30 µM | [3] > 30 µM | Focal adhesion kinase 1 > 30 µM | [4] > 30 µM | [5] > 30 µM | [6] > 30 µM

CNC(=O)c1cccc2cc(Oc3ccnc4cc(OCC5(N)CC5)c(OC)cc34)ccc12 [LUCITANIB]
inactive: [1] > 30 µM | Myosin-14 > 30 µM | [2] > 30 µM | [3] > 30 µM | Focal adhesion kinase 1 > 30 µM | [4] > 30 µM | [5] > 30 µM | [6] > 30 µM
